Source: PubChem BioAssay (NCI)
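All cell lines were grown in 96-well plates and treated with compound for 48 hours. Abbreviation: GI50, concentration required for 50% inhibition of growth. TGI: concentration producing complete growth inhibition.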

Legend:
Test in all cases: NCI anticancer screen, dose series, 48 h
K-562 leukemia = system: K-562 leukemia
SW-620 colon = system: SW-620 colon
NCI-H226 lung = system: NCI-H226 lung
SR leukemia = system: SR leukemia
HS 578T breast = system: HS 578T breast
COLO 205 colon = system: COLO 205 colon
OVCAR-4 ovarian = system: OVCAR-4 ovarian
HCT-15 colon = system: HCT-15 colon
DU-145 prostate = system: DU-145 prostate
PC-3 prostate = system: PC-3 prostate
NCI-H460 lung = system: NCI-H460 lung
A498 renal = system: A498 renal
HCC-2998 colon = system: HCC-2998 colon
A549 NSCLC = system: A549 NSCLC
CCRF-CEM leukemia = system: CCRF-CEM leukemia
IGROV1 ovarian = system: IGROV1 ovarian
UO-31 renal = system: UO-31 renal
MDA-MB-435 = system: MDA-MB-435
HCT-116 colon = system: HCT-116 colon
SK-MEL-28 melanoma = system: SK-MEL-28 melanoma
RXF 393 renal = system: RXF 393 renal
TK-10 renal = system: TK-10 renal
SF-539 CNS = system: SF-539 CNS
SN12C renal = system: SN12C renal
NCI/ADR-RES ovarian = system: NCI/ADR-RES ovarian
M14 melanoma = system: M14 melanoma
BT-549 breast = system: BT-549 breast
OVCAR-8 ovarian = system: OVCAR-8 ovarian
SF-295 CNS = system: SF-295 CNS
HL-60(TB) leukemia = system: HL-60(TB) leukemia
CAKI-1 renal = system: CAKI-1 renal
LOX IMVI melanoma = system: LOX IMVI melanoma
ACHN renal = system: ACHN renal
NCI-H522 lung = system: NCI-H522 lung
T-47D breast = system: T-47D breast
SNB-75 CNS = system: SNB-75 CNS
786-0 renal = system: 786-0 renal
HOP-62 NSCLC = system: HOP-62 NSCLC
HOP-92 NSCLC = system: HOP-92 NSCLC
SF-268 CNS = system: SF-268 CNS
MDA-MB-231 breast = system: MDA-MB-231 breast
SK-OV-3 ovarian = system: SK-OV-3 ovarian
SK-MEL-2 melanoma = system: SK-MEL-2 melanoma
MALME-3M melanoma = system: MALME-3M melanoma
SNB-19 CNS = system: SNB-19 CNS
KM12 colon = system: KM12 colon
UACC-257 melanoma = system: UACC-257 melanoma
OVCAR-3 ovarian = system: OVCAR-3 ovarian
MOLT-4 leukemia = system: MOLT-4 leukemia
MCF7 breast = system: MCF7 breast
EKVX NSCLC = system: EKVX NSCLC
U251 CNS = system: U251 CNS
HT29 colon = system: HT29 colon
UACC-62 melanoma = system: UACC-62 melanoma
OVCAR-5 ovarian = system: OVCAR-5 ovarian
RPMI-8226 leukemia = system: RPMI-8226 leukemia
SK-MEL-5 melanoma = system: SK-MEL-5 melanoma

CCNC(=O)N1CCc2cc(OC)c(OCCc3ccc(OC)c(N)c3)cc2C1c1ccc(C)cc1C (stereo not drawn)
GI50 (K-562 leukemia): 29.1 nM
TGI (K-562 leukemia): > 100000 nM
GI50 (SW-620 colon): 106 nM
TGI (SW-620 colon): > 100000 nM
GI50 (NCI-H226 lung): 643 nM
TGI (NCI-H226 lung): 14600 nM
GI50 (SR leukemia): 27 nM
TGI (SR leukemia): 6240 nM
GI50 (HS 578T breast): 273 nM
TGI (HS 578T breast): 23800 nM
GI50 (COLO 205 colon): 318 nM
TGI (COLO 205 colon): 2820 nM
GI50 (OVCAR-4 ovarian): 1470 nM
TGI (OVCAR-4 ovarian): > 100000 nM
GI50 (HCT-15 colon): < 26.3 nM
TGI (HCT-15 colon): > 100000 nM
GI50 (DU-145 prostate): 208 nM
TGI (DU-145 prostate): > 40800 nM
GI50 (PC-3 prostate): 54.8 nM
TGI (PC-3 prostate): > 100000 nM
GI50 (NCI-H460 lung): 30.9 nM
TGI (NCI-H460 lung): 1890 nM
GI50 (A498 renal): 2780 nM
GI50 (HCC-2998 colon): 344 nM
TGI (HCC-2998 colon): 23300 nM
GI50 (A549 NSCLC): 151 nM
TGI (A549 NSCLC): > 100000 nM
GI50 (CCRF-CEM leukemia): 58.6 nM
TGI (CCRF-CEM leukemia): > 76600 nM
GI50 (IGROV1 ovarian): 132 nM
TGI (IGROV1 ovarian): > 100000 nM
GI50 (UO-31 renal): 238 nM
TGI (UO-31 renal): > 95000 nM
GI50 (MDA-MB-435): 139 nM
TGI (MDA-MB-435): 496 nM
GI50 (HCT-116 colon): 31.1 nM
TGI (HCT-116 colon): 25800 nM
GI50 (SK-MEL-28 melanoma): 283 nM
TGI (SK-MEL-28 melanoma): 23300 nM
GI50 (RXF 393 renal): 234 nM
TGI (RXF 393 renal): 5010 nM
GI50 (TK-10 renal): 2140 nM
TGI (TK-10 renal): > 100000 nM
GI50 (SF-539 CNS): 77.1 nM
TGI (SF-539 CNS): 1740 nM
GI50 (SN12C renal): 294 nM
TGI (SN12C renal): 22200 nM
GI50 (NCI/ADR-RES ovarian): 229 nM
TGI (NCI/ADR-RES ovarian): 2460 nM
GI50 (M14 melanoma): 205 nM
TGI (M14 melanoma): 15200 nM
GI50 (BT-549 breast): 349 nM
TGI (BT-549 breast): 3460 nM
GI50 (OVCAR-8 ovarian): 105 nM
TGI (OVCAR-8 ovarian): 34300 nM
GI50 (SF-295 CNS): 164 nM
TGI (SF-295 CNS): 11100 nM
GI50 (HL-60(TB) leukemia): 100 nM
TGI (HL-60(TB) leukemia): 1820 nM
GI50 (CAKI-1 renal): 161 nM
TGI (CAKI-1 renal): 31400 nM
GI50 (LOX IMVI melanoma): 36.5 nM
TGI (LOX IMVI melanoma): 1740 nM
GI50 (ACHN renal): 121 nM
TGI (ACHN renal): > 60400 nM
GI50 (NCI-H522 lung): 98.4 nM
TGI (NCI-H522 lung): 440 nM
GI50 (T-47D breast): 280 nM
TGI (T-47D breast): 92800 nM
GI50 (SNB-75 CNS): 184 nM
TGI (SNB-75 CNS): 4270 nM
GI50 (786-0 renal): 165 nM
TGI (786-0 renal): 92000 nM
GI50 (HOP-62 NSCLC): 226 nM
TGI (HOP-62 NSCLC): > 46400 nM
GI50 (HOP-92 NSCLC): 4810 nM
TGI (HOP-92 NSCLC): 56700 nM
GI50 (SF-268 CNS): 278 nM
TGI (SF-268 CNS): > 95300 nM
GI50 (MDA-MB-231 breast): 134 nM
TGI (MDA-MB-231 breast): > 56300 nM
GI50 (SK-OV-3 ovarian): 533 nM
TGI (SK-OV-3 ovarian): > 90000 nM
GI50 (SK-MEL-2 melanoma): 996 nM
TGI (SK-MEL-2 melanoma): 14400 nM
GI50 (MALME-3M melanoma): 624 nM
TGI (MALME-3M melanoma): 76100 nM
GI50 (SNB-19 CNS): 191 nM
TGI (SNB-19 CNS): > 100000 nM
GI50 (KM12 colon): 493 nM
TGI (KM12 colon): 65900 nM
GI50 (UACC-257 melanoma): 533 nM
TGI (UACC-257 melanoma): > 82000 nM
GI50 (OVCAR-3 ovarian): 150 nM
TGI (OVCAR-3 ovarian): 22200 nM
GI50 (MOLT-4 leukemia): 38.4 nM
TGI (MOLT-4 leukemia): > 100000 nM
GI50 (MCF7 breast): 63.4 nM
TGI (MCF7 breast): > 83500 nM
GI50 (EKVX NSCLC): 1510 nM
TGI (EKVX NSCLC): > 100000 nM
GI50 (U251 CNS): 74.3 nM
TGI (U251 CNS): 24600 nM
GI50 (HT29 colon): 261 nM
TGI (HT29 colon): 1770 nM
GI50 (UACC-62 melanoma): 105 nM
TGI (UACC-62 melanoma): 2750 nM
GI50 (OVCAR-5 ovarian): 538 nM
TGI (OVCAR-5 ovarian): > 100000 nM
GI50 (RPMI-8226 leukemia): 89.9 nM
TGI (RPMI-8226 leukemia): 1600 nM
GI50 (SK-MEL-5 melanoma): 106 nM
TGI (SK-MEL-5 melanoma): 1700 nM
